Data reported in US10894037B2, “Inhibitors of bacterial two component signal transduction system and uses thereof” (priority 2017, dated 2021).

How the values were obtained:
Assay type in all cases: binding
[1] = target: PmrA-DNA complex (Klebsiella pneumoniae, UniProt W9BNR5); test: Fluorescence polarization (FP) assay of inhibition of PmrA-DNA complex formation
Protocol: (§1) Fluorescence Polarization (FP) Measurements
(§2) Compounds, E1-E5, were purchased from InterBioScreen (Moscow, Russia) (E1: STOCK1S-95047; E2: STOCK1N-13224; E3: STOCK1N-16691; E4: STOCK 1 S-43938; E5: STOCK1S-55283), and the purity are over 90% examined by NMR. The oligonucleotides (5′-[…]-3′, SEQ ID NO: 2) labeled with 6-carboxyfluorescein (6-FAM) at the 5′-position, was dissolved in 10 mM sodium phosphate and 15 mM NaCl pH 7.0 for fluorescence polarization experiments. About 10 μl activated PmrA (prepared in 10 mM sodium phosphate and 15 mM NaCl at pH7.0) was first added into the well of ELISA plate. Then, 1 μl of serial diluted inhibitors, E1-E5, (prepared in the sample buffer of activated PmrA) were mixed with the PmrA (final concentration Of 30 μM) to reach the interested concentrations and incubated at 25° C. for 10 mins. Subsequently, 9 μl of 6-FAM-labeled DNA (final concentration of 10 nM) was added into the reaction, incubating at 25° C. for another 10 mins. Reactions were measured 3 times by use of a SpectraMax Paradigm plate reader (Molecular Devices, CA, USA) with excitation wavelength 485 nm and emission wavelength 535 nm. The inhibition % was derived according to the following equation:
(§3) [formula] in which (D), (P+D), and (P+I+D) are the polarization intensity of DNA alone, PmrA with DNA, and PmrA mixed with inhibitor then incubated with DNA, respectively.
(§4) Fluorescence polarization (FP) was first employed to access the inhibitory abilities of E1-E5 against the formation of PmrA-DNA complex in accordance with procedures described in the section of “Materials and Methods.” Results are depicted in FIG. 1, panels E and F, and Table 1.

[2] = target: PmrA-DNA complex (Klebsiella pneumoniae, UniProt W9BNR5, I220D/W181G); test: as above; settings: read-out: inhibition of PmrA binding to DNA (PmrA-DNA complex formation)
Chain of PmrA-DNA complex (Klebsiella pneumoniae, UniProt W9BNR5, I220D/W181G) (W9BNR5 whole entry I220D/W181G, one chain of several): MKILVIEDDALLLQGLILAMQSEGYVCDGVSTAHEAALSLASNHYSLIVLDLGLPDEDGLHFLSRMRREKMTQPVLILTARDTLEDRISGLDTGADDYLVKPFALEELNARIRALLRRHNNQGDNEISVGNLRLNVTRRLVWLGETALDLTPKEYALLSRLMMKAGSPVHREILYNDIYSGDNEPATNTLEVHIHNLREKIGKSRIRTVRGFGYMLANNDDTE
Protocol: as §1, §2, §3, §4

[3] = target: T1, PmrAC (C-terminal domain of PmrA) (Klebsiella pneumoniae, UniProt W9BNR5); test: NMR (2D 1H-15N TROSY-HSQC) compound titration for dissociation constant
T1 sequence (W9BNR5 121-223): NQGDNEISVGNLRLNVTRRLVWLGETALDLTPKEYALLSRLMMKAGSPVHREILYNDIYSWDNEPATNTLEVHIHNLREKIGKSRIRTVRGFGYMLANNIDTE
Protocol: NMR Spectroscopy and Compound Titrations
The preparations of NMR samples were as described previously (Mscielag and Goldschmidt, Expert opinion on investigational drugs 2000, 9, 2351-2369.). Briefly, the activated and inactivated PmrA (0.3 ml, 0.25 mM) were prepared in pH8.0 buffer (20 mM Tris and 100 mM NaCl) with or without BeF3^− activation. PmrAC (0.3 ml, 0.25 mM) was prepared in pH8.0 buffer (20 mM Tris and 100 mM NaCl). All the protein solutions were further loaded in Shigemi NMR tubes (Shigemi Inc.). NMR experiments for activated/inactivated PmrA and PmrAC were conducted at 310 and 298K on Brucker AVANCE 600 or 800 NMR spectrometers (Bruker, Karlsruhe, Germany) equipped with a triple-resonance cryoprobe including a shielded z-gradient. The hetero-nuclear NMR experiments for backbone assignments were performed as described previously in a review article (Garcia-Calderon et al., Journal of Bacteriology 2007, 189, 6635-6644). All the acquired NMR spectra were processed by using NMRPipe (Chen and Groisman, Annual review of microbiology 2013, 67, 83-112) and analyzed with NMRViewJ8.0a.22 (Wosten et al., Molecular microbiology 2006, 60, 39-50). […] The chemical shift changes were calculated through the equation Δδ=[(ΔδNH)^2+(0.17×ΔδN)^2]^0.5, in which ΔδNH and ΔδN are the chemical shift differences for ^1HN and ^15N, respectively. […]

[4] = target: T1, PmrAC (C-terminal domain of PmrA); test: Isothermal titration calorimetry (ITC)
Protocol: Isothermal Titration Calorimetry (ITC)
The binding affinities of PmrAC with compound, E1, was estimated by ITC using a MicroCal iTC200 microcalorimeter. The sample of PmrAC was prepared in reaction buffer (20 mM sodium phosphate, 100 mM NaCl, pH6.0). Compounds were also prepared in reaction buffer (E1=0.4 mM) and titrated into PmrAC (45 μM) at 25° C. The background heat generated from compound to buffer titration was subtracted, and the corrected heat form the binding reaction of PmrAC to E1 was used to derive the association constant (Ka), the enthalpy of binding (ΔH), the change in Gibbs free energy (ΔG), and the entropy changes ([…]) at 298K. All the data were analyzed by using Origin ITC Analysis (MicroCal Software, Northampton, Mass., USA).
(§5) The binding affinity of E1 toward PmrAC (C-terminal domain of PmrA) was further assessed by Isothermal titration calorimetry (ITC) and Bio-layer interferometer (BLI) at the condition described previously (Lou et al., Nature communication 2015, 6, 8838.) (sodium phosphate buffer pH6.0). According to the ITC results, the interaction of E1 with PmrAC appeared to be an exothermic reaction, with a change in enthalpy (ΔH) of −21.4 kcal/mol, change in entropy (AS) of −45.6 […], and N value of 1.09 (FIG. 2, panel G).

[5] = target: T1, PmrAC (C-terminal domain of PmrA); test: Bio-layer interferometry (BLI)
Protocol: Bio-Layer Interferometry (BLI)
The BLI kinetics were obtained by using the ForteBio Octet RED96 instrument (ForteBio, Pall Life Sciences). Recombinant PmrAC carrying C-terminal 6× His tag was immobilized on the HIS1K biosensor in the reaction buffer containing 20 mM sodium phosphate, 100 mM NaCl, pH 6.0 at 25° C. for 180 s prior to kinetic experiment. For the association, the preloading biosensor was exposed to different concentration of E1 (0-37.5 μM) for the period of 300 s. Following the dissociation step, the sensor was subjected to the reaction buffer for 300 s. Kinetic constants, including Kon (association constant, M^−1s^−1) and Koff (dissociation constant, s^−1), were obtained by fitting the reaction model 1:1 kinetics to the reference-subtracted data. The equilibrium dissociation (KD) was calculated as the ratio of Koff to Kon. All calculation was determined using Data Analysis 7 software (ForteBio, Pall Life Sciences).
as §5

Chain of PmrA-DNA complex (Klebsiella pneumoniae, UniProt W9BNR5) (W9BNR5 whole entry I220D/W181G, one chain of several): as the sequence (W9BNR5 whole entry I220D/W181G, one chain of several) above

Compound | IC50 [1] [µM] | inhibition at 50 µM [2] [%] | Kd [3] [µM] | Kd [4] [µM] | Kd [5] [µM] | koff ([5]; read-out: Koff rate) [s⁻¹] | kon ([5]; read-out: Kon rate) [M⁻¹ s⁻¹]
O=S(=O)(O)c1ccc(-c2ncc(-c3ccc(-c4cnc(-c5ccc(S(=O)(=O)O)cc5)o4)cc3)o2)cc1 [Compound E1] | 10.2 ± 2.6 | 70.2 ± 3.2 | 126 ± 34.6 | 1.7 | 2.6 ± 0.1 | 0.251 | 94900
O=S(=O)(O)CCOCC1CSSCC(COCCS(=O)(=O)O)SS1 (centres unmarked) [Compound E2] | 42.5 ± 2.9 | 55.9 ± 2.7 |  |  |  |  | 
O=S(=O)(O)CC1CSSCC(CS(=O)(=O)O)SS1 (centres unmarked) [Compound E3] | 100 ± 2.5 | 27.4 ± 1.8 |  |  |  |  | 
